# Target: T1, ROCKα/ROCKII (Homo sapiens, UniProt O75116)
# T1 construct: purchased Upstate Biotechnology 14-451
# Experiment: ROCK inhibition, Method 2 fluorescence polarization (FP) assay, ROCK IMAP Kit
# Type: biochemical
# Conditions: 10 μM ATP, read-out: IC50 Meth. 2
# Procedure: The inhibition assays were performed with a fluorescence polarization (FP) assay using the commercially available ROCK IMAP Kit from Molecular Devices (Product ID. No. R8093), essentially in accordance with the protocol supplied by the manufacturer. […] The enzyme mix ROCKα/ROCKII was obtained from Upstate Biotechnology (Product ID No 14-451).
# In summary, all compounds were screened in the wells of a 384 well plate for enzymatic inhibition with concentrations varying from 100 μM to 0.3 nM using a stepwise 3 (or 2)-fold dilution.
# To perform the assay, 1 μl of a solution of the compound to be tested in DMSO (at each concentration) was added to 2 μl of a solution of the enzyme in 10 mM Tris-HCl, 10 mM MgCl2, 0.1% BSA, 0.05% NaN3, pH 7,2. The final concentration of the enzyme was 2.6 nM.
# After incubating for 30 minutes at RT, 2 μl of a mixture of ATP and the protein substrate in 10 mM Tris-HCl, 10 mM MgCl2, 0.1% BSA, 0.05% NaN3, pH 7.2 was added. The final concentration of the ATP was 10 μM and final concentration of protein substrate was 0.2 μM.
# After incubating for 60 minutes at RT, 12 μl of the IMAP Binding Solution (mix of the IMAP Binding Buffer A (1×) and the IMAP Binding Reagent (from the ROCK IMAP kit)) was added.
# The mixture thus obtained (total volume: 17 μl) was incubated for 60 minutes at RT, upon which the fluorescence polarization was measured using an automated plate reader (Perkin Elmer, Model Envision 2100-0010 HTS) with FP filters: excitation filter FITC FP 480 and emission filters FITC FP P-pol 535 and FITC FP S-pol 535 (Perkin-Elmer). The results were fitted to a curve using the XL-Fit algorithm and IC50 values were calculated for each fitted curve, again using the XL-Fit algorithm.
# T1 sequence (O75116 whole entry): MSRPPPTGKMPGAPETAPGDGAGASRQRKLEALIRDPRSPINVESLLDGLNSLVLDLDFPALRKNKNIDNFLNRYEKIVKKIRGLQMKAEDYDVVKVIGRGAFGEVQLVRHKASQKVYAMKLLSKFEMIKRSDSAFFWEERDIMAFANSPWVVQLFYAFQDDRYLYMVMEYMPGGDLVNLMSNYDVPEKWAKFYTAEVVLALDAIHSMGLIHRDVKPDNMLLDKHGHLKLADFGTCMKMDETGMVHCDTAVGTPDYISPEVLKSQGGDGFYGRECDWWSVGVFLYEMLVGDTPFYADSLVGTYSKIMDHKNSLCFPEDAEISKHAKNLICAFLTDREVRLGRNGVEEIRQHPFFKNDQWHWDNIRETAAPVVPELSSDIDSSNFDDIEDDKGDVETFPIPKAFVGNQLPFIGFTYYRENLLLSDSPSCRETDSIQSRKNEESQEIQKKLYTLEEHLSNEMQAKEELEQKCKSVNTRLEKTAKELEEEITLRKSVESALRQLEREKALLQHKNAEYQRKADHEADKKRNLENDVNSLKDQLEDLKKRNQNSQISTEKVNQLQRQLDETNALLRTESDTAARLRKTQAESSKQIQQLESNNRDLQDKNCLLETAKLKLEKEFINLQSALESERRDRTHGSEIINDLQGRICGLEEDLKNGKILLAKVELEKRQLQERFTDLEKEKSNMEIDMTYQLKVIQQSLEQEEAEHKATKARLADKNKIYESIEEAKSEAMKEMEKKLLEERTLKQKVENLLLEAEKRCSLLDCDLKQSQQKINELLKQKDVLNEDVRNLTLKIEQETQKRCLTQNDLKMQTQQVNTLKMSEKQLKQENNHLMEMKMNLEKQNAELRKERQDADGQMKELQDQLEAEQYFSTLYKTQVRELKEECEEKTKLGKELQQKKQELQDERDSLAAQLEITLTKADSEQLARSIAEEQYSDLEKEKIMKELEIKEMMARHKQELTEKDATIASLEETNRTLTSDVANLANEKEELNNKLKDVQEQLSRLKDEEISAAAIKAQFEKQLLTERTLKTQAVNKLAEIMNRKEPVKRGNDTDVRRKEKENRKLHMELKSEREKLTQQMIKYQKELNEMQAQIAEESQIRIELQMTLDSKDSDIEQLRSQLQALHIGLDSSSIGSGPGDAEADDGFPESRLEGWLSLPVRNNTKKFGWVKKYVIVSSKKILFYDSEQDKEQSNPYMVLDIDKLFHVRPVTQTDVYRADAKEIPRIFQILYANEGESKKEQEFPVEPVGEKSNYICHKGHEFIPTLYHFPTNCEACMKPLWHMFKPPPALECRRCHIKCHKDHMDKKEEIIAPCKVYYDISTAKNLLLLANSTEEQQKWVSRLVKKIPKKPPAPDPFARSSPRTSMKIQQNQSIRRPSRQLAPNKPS
row,IC50 [nM],Molecule
1,< 100,"COc1ccc(OC(=O)c2cccc(-c3cc(C(=O)Nc4ccncc4)ccc3C(C)N)c2)cc1OC (stereo not drawn) [Compound 77, 2′-(1-Amino-ethyl)-5′-(pyridin-4-ylcarbamoyl)-biphenyl-3-carboxylic acid 3,4-dimethoxy-phenyl ester]"

# Target: T2, ROCK II (Homo sapiens, UniProt O75116)
# T2 construct: purchased Proqinase
# Experiment: ROCK II kinase inhibition, Method 1 Proqinase setup (33P radioisotopic protein kinase assay)
# Type: biochemical
# Conditions: 33P radioisotopic assay, 1 μM ATP, read-out: IC50 Meth. 1
# Procedure: A ^33P radioisotopic protein kinase assay is used to determine the IC50 for inhibiting ROCK II. A final 50 μl reaction cocktail, containing 60 mM HEPES-NaOH (pH 7.5), 3 mM MgCl2, 3 mM MnCl2, 3 μM Na-orthovanadate, 1.2 mM DTT, 1 μM ATP, 50 μg/ml PEG20.000, 1% (v/v) DMSO, 1 μM ATP (approx. 3×10^5 cpm ^33P-γ-ATP), the substrate (Substrate: S6 peptide—2000 ng/well) and recombinant protein kinase (0.5 nM-2.5 ng/well) is mixed on a shaker and incubated at 30° C. for 80 minutes. The reaction is stopped by the addition of 50 μl of a 2% solution of H3PO4 and mixed on a shaker. After washing twice with 200 μl of a 0.9% solution of NaCl, the dry plate is counted.
# T2 sequence (O75116 whole entry): as above
row,Molecule,IC50 [nM]
1,"CCCOC(=O)c1cccc(-c2cc(C(=O)Nc3ccncc3)ccc2CN)c1 [Compound 10, 2′-Aminomethyl-5′-(pyridin-4-ylcarbamoyl)-biphenyl-3-carboxylic acid propyl ester]",100 to 1000
2,NCc1ccc(C(=O)Nc2ccncc2F)cc1-c1cccc(CC(=O)OCCF)c1 [Compound 192],1000 to 10000
3,"CCCCCCOC(=O)c1cccc(-c2cc(C(=O)Nc3ccncc3)ccc2CN)c1 [Compound 17, 2′-Aminomethyl-5′-(pyridin-4-ylcarbamoyl)-biphenyl-3-carboxylic acid hexyl ester]",100 to 1000
4,"COC(=O)c1cc2c(-c3cc(C(=O)Nc4ccncc4)ccc3C(C)N)cccc2[nH]1 (stereo not drawn) [Compound 171, 4-[2-(1-Amino-ethyl)-5-(pyridin-4-ylcarbamoyl)-phenyl]-1H-indole-2-carboxylic acid methyl ester]",100 to 1000
5,NCc1ccc(C(=O)Nc2ccncc2F)cc1-c1cccc(C(=O)OCCO)c1 [Compound 183],100 to 1000
6,"COC(=O)c1ccc(-c2cc(C(=O)Nc3ccncc3)ccc2CN)cc1 [Compound 2, 2′-Aminomethyl-5′-(pyridin-4-ylcarbamoyl)-biphenyl-4-carboxylic acid methyl ester]",1000 to 10000
7,NCc1ccc(C(=O)Nc2ccncc2F)cc1-c1cccc(C(=O)OCC2CCCO2)c1 (stereo not drawn) [Compound 187],100 to 1000
8,"NCc1ccc(C(=O)Nc2ccncc2)cc1-c1cccc(NCCSC2CCOC2=O)c1 (stereo not drawn) [Compound 136, 6-Aminomethyl-3′-[2-(2-oxo-tetrahydro-furan-3-ylsulfanyl)-ethylamino]-biphenyl-3-carboxylic acid pyridin-4-ylamide]",100 to 1000
9,NCc1ccc(C(=O)Nc2ccncc2F)cc1-c1cccc(C(=O)OCC2CCCC2)c1 [Compound 185],100 to 1000
10,NCc1ccc(C(=O)Nc2ccncc2F)cc1-c1cccc(OCC(=O)OCC2CCCC2)c1 [Compound 191],100 to 1000
11,NCc1ccc(C(=O)Nc2ccncc2F)cc1-c1cccc(C(=O)OCc2ccccc2)c1 [Compound 180],100 to 1000
12,"CCCCOC(=O)c1cccc(-c2cc(C(=O)Nc3ccncc3)ccc2CN)c1 [Compound 14, 2′-Aminomethyl-5′-(pyridin-4-ylcarbamoyl)-biphenyl-3-carboxylic acid butyl ester]",100 to 1000
13,NCc1ccc(C(=O)Nc2ccncc2F)cc1-c1cccc(OCC(=O)OCc2ccccc2)c1 [Compound 181],1000 to 10000
14,NCc1ccc(C(=O)Nc2ccncc2F)cc1-c1cccc(CC(=O)OCC23CC4CC(CC(C4)C2)C3)c1 [Compound 182],100 to 1000
15,"CCCCCOC(=O)c1cccc(-c2cc(C(=O)Nc3ccncc3)ccc2CN)c1 [Compound 15, 2′-Aminomethyl-5′-(pyridin-4-ylcarbamoyl)-biphenyl-3-carboxylic acid pentyl ester]",100 to 1000
16,2′-Aminomethyl-5′- (pyridin-4-ylcarbamoyl)- biphenyl-3-carboxylic acid 2-methoxy-propyl ester [Compound 42],100 to 1000
17,NCc1ccc(C(=O)Nc2ccncc2F)cc1-c1cccc(C(=O)OCCC23CC4CC(CC(C4)C2)C3)c1 [Compound 189],100 to 1000
18,"NCc1ccc(C(=O)Nc2ccncc2)cc1-c1cccc(C(=O)OCC2COc3ccccc3O2)c1 (stereo not drawn) [Compound 55, 2′-Aminomethyl-5′-(pyridin-4-ylcarbamoyl)-biphenyl-3-carboxylic acid 2,3-dihydro-benzo[1,4]dioxin-2-ylmethyl ester]",< 100

# More lines, now with the values ahead:
row,IC50 [nM],Molecule
1,100 to 1000,"CC(C)OC(=O)c1cccc(-c2cc(C(=O)Nc3ccncc3)ccc2CN)c1 [Compound 26, 2′-Aminomethyl-5′-(pyridin-4-ylcarbamoyl)-biphenyl-3-carboxylic acid isopropyl ester]"
2,< 100,"COC(=O)CNC(=O)c1cccc(-c2cc(C(=O)Nc3ccncc3)ccc2CN)c1 [Compound 102, {[2′-Aminomethyl-5′-(pyridin-4-ylcarbamoyl)-biphenyl-3-carbonyl]-amino}-acetic acid methyl ester]"
3,100 to 1000,"CN1CCC(OC(=O)c2cccc(-c3cc(C(=O)Nc4ccncc4)ccc3CN)c2)CC1 [Compound 48, 2′-Aminomethyl-5′-(pyridin-4-ylcarbamoyl)-biphenyl-3-carboxylic acid 1-methyl-piperidin-4-yl ester]"
4,100 to 1000,"NCc1ccc(C(=O)Nc2ccncc2)cc1-c1cccc(C(=O)OC2CCCCC2)c1 [Compound 35, 2′-Aminomethyl-5′-(pyridin-4-ylcarbamoyl)-biphenyl-3-carboxylic acid cyclohexyl ester]"
5,< 100,"NCc1ccc(C(=O)Nc2ccncc2)cc1-c1cccc(C(=O)NCC(N)=O)c1 [Compound 106, 6-Aminomethyl-biphenyl-3,3′-dicarboxylic acid 3′-carbamoylmethyl-amide 3-pyridin-4-ylamide]"
6,< 100,"COC(=O)c1cccc(-c2cc(C(=O)Nc3ccncc3)ccc2CN)c1 [Compound 1, 2′-Aminomethyl-5′-(pyridin-4-ylcarbamoyl)-biphenyl-3-carboxylic acid methyl ester]"
7,100 to 1000,"COCCOC(=O)c1cccc(-c2cc(C(=O)Nc3ccncc3)ccc2CN)c1 [Compound 41, 2′-Aminomethyl-5′-(pyridin-4-ylcarbamoyl)-biphenyl-3-carboxylic acid 2-methoxy-ethyl ester]"
8,100 to 1000,"NCc1ccc(C(=O)Nc2ccncc2)cc1-c1cccc(C(=O)OCC2CCCCC2)c1 [Compound 39, 2′-Aminomethyl-5′-(pyridin-4-ylcarbamoyl)-biphenyl-3-carboxylic acid cyclohexylmethyl ester]"
9,100 to 1000,"NCc1ccc(C(=O)Nc2ccncc2)cc1-c1cccc(C(=O)OC2CCOCC2)c1 [Compound 43, 2′-Aminomethyl-5′-(pyridin-4-ylcarbamoyl)-biphenyl-3-carboxylic acid tetrahydro-pyran-4-yl ester]"
10,100 to 1000,"NCc1ccc(C(=O)Nc2ccncc2)cc1-c1cccc(C(=O)OC2CCCC2)c1 [Compound 32, 2′-Aminomethyl-5′-(pyridin-4-ylcarbamoyl)-biphenyl-3-carboxylic acid cyclopentyl ester]"
11,1000 to 10000,"COC(=O)C1CCCCN1C(=O)c1cccc(-c2cc(C(=O)Nc3ccncc3)ccc2CN)c1 (stereo not drawn) [Compound 122, 1-[2′-Aminomethyl-5′-(pyridin-4-ylcarbamoyl)-biphenyl-3-carbonyl]-piperidine-2-carboxylic acid methyl ester]"
12,1000 to 10000,"COC(=O)C1CCN(C(=O)c2cccc(-c3cc(C(=O)Nc4ccncc4)ccc3CN)c2)CC1 [Compound 124, 1-[2′-Aminomethyl-5′-(pyridin-4-ylcarbamoyl)-biphenyl-3-carbonyl]-piperidine-4-carboxylic acid methyl ester]"
13,100 to 1000,"NCc1ccc(C(=O)Nc2ccncc2)cc1-c1cccc(C(=O)OCC2CCCC2)c1 [Compound 38, 2′-Aminomethyl-5′-(pyridin-4-ylcarbamoyl)-biphenyl-3-carboxylic acid cyclopentylmethyl ester]"
14,100 to 1000,"CCOC(=O)c1cccc(-c2cc(C(=O)Nc3ccncc3)ccc2CN)c1 [Compound 7, 2′-Aminomethyl-5′-(pyridin-4-ylcarbamoyl)-biphenyl-3-carboxylic acid ethyl ester]"

# Source: patent publication US8912209B2, “Rock inhibitors” (Amakem NV, priority 2010, dated 2014)
